Values after ≈ are worked out from the molar mass of the structure shown.
What was measured:
[1] = target: Hsp90 Nuclear Binding Domain (NBD) (Aspergillus fumigatus, UniProt P40292); assay: Surface Plasmon Resonance (SPR) binding, A. fumigatus Hsp90 NBD; settings: biotinylated Hsp90 NBD on streptavidin chip, 25° C., 1:1 binding model; NB undefined
Protocol: (§1) Surface Plasmon Resonance (SPR) Experiments. SPR experiments were performed on a Biacore S200 instrument at 25° C. Biotinylated Hsp90 Nuclear Binding Domain (NBD) was diluted to 40 μg/mL and immobilized on a streptavidin chip (Sensor Chip SA, GE Healthcare) at a density of 2000-2500 response units (RU) on the biosensor surface.
(§2) Recombinant Hsp90 NBDs were expressed and purified as previously described (Whitesell et al., Nat Commun 10, 402 (2019)) with the following modification; Hsp90 NBD expression constructs were modified to encode a C-terminal AviTag for site-specific on-column biotinylation with a BirA biotin-ligase kit (Avidity LLC; BirA-500). Stock protein solutions in 50% glycerol were stored at −20° C. until dilution into relevant buffers. Binding experiments were done in HBS-P (0.01 M HEPES, pH 7.4, 0.15 M NaCl, 0.005% v/v surfactant P20, GE Healthcare) with 2% DMSO at flow rate of 40 μL/min. Test compounds (dilution series) were injected with a 60 s association time and 600 s dissociation time. Resulting sensorgrams were analyzed with a fit to a 1:1 binding model, using BIA evaluation software.

[2] = target: Hsp90 Nuclear Binding Domain (NBD) (Candida albicans (strain SC5314 / ATCC MYA-2876) (Yeast), UniProt P46598); assay: Surface Plasmon Resonance (SPR) binding, C. albicans Hsp90 NBD; settings: biotinylated Hsp90 NBD on streptavidin chip, 25° C., 1:1 binding model
Sequence of Hsp90 Nuclear Binding Domain (NBD) (Candida albicans (strain SC5314 / ATCC MYA-2876) (Yeast), UniProt P46598) (P46598 1-218 limits assumed): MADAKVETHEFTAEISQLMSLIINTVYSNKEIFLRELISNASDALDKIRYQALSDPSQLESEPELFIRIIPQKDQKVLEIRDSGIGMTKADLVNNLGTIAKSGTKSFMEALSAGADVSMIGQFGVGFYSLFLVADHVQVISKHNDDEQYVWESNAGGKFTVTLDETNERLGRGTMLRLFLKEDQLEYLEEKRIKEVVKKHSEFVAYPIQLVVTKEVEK
Protocol: as §1, §2

[3] = tested on: CaCl2; assay: Antifungal sensitivity testing (broth microdilution MIC); assay type: cell-based; settings: Table 4; 96-well broth microdilution
Protocol: Antifungal Sensitivity Testing. Minimum inhibitory concentrations (MICs) were determined in flat bottom, 96-well plate format using a modified broth microdilution protocol as previously described (Singh et al., PLoS Pathog. 5, e1000532 (2009); LaFayette et al., PLoS Pathog. 6, 79-80 (2010)). Compounds were formulated in dimethyl sulfoxide (DMSO, Sigma-Aldrich Co.); fluconazole was dissolved in sterile ddH2O. Each compound was tested in duplicate in at least two independent experiments. To test for fungicidal activity, cultures from MIC plates were spotted on YPD agar plates using a spotter (Frogger, V&P Scientific, Inc.). Plates were photographed after 24 h of incubation at 30° C.

Sequence of Hsp90 Nuclear Binding Domain (NBD) (Aspergillus fumigatus, UniProt P40292) (P40292 whole entry, looked up, the tested form may be a part): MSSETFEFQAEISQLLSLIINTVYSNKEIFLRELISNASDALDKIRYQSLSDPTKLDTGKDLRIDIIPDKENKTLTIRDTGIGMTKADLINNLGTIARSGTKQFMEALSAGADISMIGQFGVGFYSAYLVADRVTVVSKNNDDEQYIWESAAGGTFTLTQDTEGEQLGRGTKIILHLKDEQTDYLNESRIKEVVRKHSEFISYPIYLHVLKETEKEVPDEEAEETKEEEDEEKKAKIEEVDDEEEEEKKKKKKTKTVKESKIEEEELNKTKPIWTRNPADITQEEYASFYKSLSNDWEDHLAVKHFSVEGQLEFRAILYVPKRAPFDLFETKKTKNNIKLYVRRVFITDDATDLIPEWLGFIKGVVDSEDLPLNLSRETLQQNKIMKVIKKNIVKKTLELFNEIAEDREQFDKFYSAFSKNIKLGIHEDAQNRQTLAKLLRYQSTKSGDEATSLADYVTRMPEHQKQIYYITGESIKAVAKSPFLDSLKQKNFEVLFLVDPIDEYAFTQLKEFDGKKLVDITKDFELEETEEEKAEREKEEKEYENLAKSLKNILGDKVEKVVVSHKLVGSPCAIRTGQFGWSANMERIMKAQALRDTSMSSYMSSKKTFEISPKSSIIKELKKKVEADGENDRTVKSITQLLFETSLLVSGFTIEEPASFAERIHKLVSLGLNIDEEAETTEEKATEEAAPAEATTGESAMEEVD

Compound	Kd [1]	Kd [2]	MIC50 [3]
Nc1nc2sc(CN[C@@H]3CCN(CCC(O)(Cn4cncn4)c4ccc(F)cc4F)C3)cc2n(-c2ccc3c(c2)N(c2ccccc2)CCO3)c1=O (stereo partly drawn) [Compound I-120, 3-amino-6-((((3R)-1-(3-(2,4-difluorophenyl)-3-hydroxy-4-(1H-1,2,4-triazol-1-yl)butyl)pyrrolidin-3-yl)amino)methyl)-1-(4-phenyl-3,4-dihydro-2H-benzo[b][1,4]oxazin-6-yl)thieno[2,3-b]pyrazin-2(1H)-one]	265 nM	179 nM	17.5 µM (≈ 12.7 µg/mL)
Nc1nc2sc(CNC3CCN(CC(O)(Cn4cncn4)c4ccccc4)CC3)cc2n(-c2ccc3c(c2)N(c2ccccc2)CCO3)c1=O (stereo not drawn) [Compound I-145, 3-amino-6-(((1-(2-hydroxy-2-phenyl-3-(1H-1,2,4-triazol-1-yl)propyl)piperidin-4-yl)amino)methyl)-1-(4-phenyl-3,4-dihydro-2H-benzo[b][1,4]oxazin-6-yl)thieno[2,3-b]pyrazin-2(1H)-one]	161 nM	114 nM	12.5 µM (≈ 8.62 µg/mL)
Nc1nc2sc(C(=O)NC3CCN(CC(O)(Cn4cncn4)c4ccccn4)CC3)cc2n(-c2ccc3c(c2)N(c2ccccc2)CCO3)c1=O (stereo not drawn) [Compound I-142, 3-amino-N-(1-(2-hydroxy-2-(pyridin-2-yl)-3-(1H-1,2,4-triazol-1-yl)propyl)piperidin-4-yl)-2-oxo-1-(4-phenyl-3,4-dihydro-2H-benzo[b][1,4]oxazin-6-yl)-1,2-dihydrothieno[2,3-b]pyrazine-6-carboxamide]	34.1 nM	2.4 nM	25 µM (≈ 17.6 µg/mL)
Nc1nc2sc(-c3nc(C(=O)NCC(O)(Cn4cncn4)c4ccc(F)cc4F)no3)cc2n(-c2ccc3c(c2)N(c2ccccc2)CCO3)c1=O (stereo not drawn) [Compound I-57, 5-(3-amino-2-oxo-1-(4-phenyl-3,4-dihydro-2H-benzo[b][1,4]oxazin-6-yl)-1,2-dihydrothieno[2,3-b]pyrazin-6-yl)-N-(2-(2,4-difluorophenyl)-2-hydroxy-3-(1H-1,2,4-triazol-1-yl)propyl)-1,2,4-oxadiazole-3-carboxamide]	46.9 nM	32.1 nM	20 µM (≈ 14.5 µg/mL)
Nc1nc2sc(CNCC(O)(Cn3cncn3)c3ccc(F)cc3F)cc2n(-c2ccc3c(c2)N(c2ccccc2)CCO3)c1=O (stereo not drawn) [Compound I-82, 3-amino-6-(((2-(2,4-difluorophenyl)-2-hydroxy-3-(1H-1,2,4-triazol-1-yl)propyl)amino)methyl)-1-(4-phenyl-3,4-dihydro-2H-benzo[b][1,4]oxazin-6-yl)thieno[2,3-b]pyrazin-2(1H)-one]	1350 nM	826 nM	1.6 µM (≈ 1.03 µg/mL)
Nc1nc2sc(C(=O)NC3CCN(CCC(O)(Cn4cncn4)c4ccc(F)cc4F)CC3)cc2n(-c2ccc3c(c2)N(c2ccccc2)CCO3)c1=O (stereo not drawn) [Compound I-28, 3-amino-N-(1-(3-(2,4-difluorophenyl)-3-hydroxy-4-(1H-1,2,4-triazol-1-yl)butyl)piperidin-4-yl)-2-oxo-1-(4-phenyl-3,4-dihydro-2H-benzo[b][1,4]oxazin-6-yl)-1,2-dihydrothieno[2,3-b]pyrazine-6-carboxamide]	159 nM	13.3 nM	6 µM (≈ 4.52 µg/mL)
Nc1nc2sc(CN[C@@H]3CCN(CC(O)(Cn4cncn4)c4ccc(F)cc4F)C3)cc2n(-c2ccc3c(c2)N(c2ccccc2)CCO3)c1=O (stereo partly drawn) [Compound I-77, 3-amino-6-((((3R)-1-(2-(2,4-difluorophenyl)-2-hydroxy-3-(1H-1,2,4-triazol-1-yl)propyl)pyrrolidin-3-yl)amino)methyl)-1-(4-phenyl-3,4-dihydro-2H-benzo[b][1,4]oxazin-6-yl)thieno[2,3-b]pyrazin-2(1H)-one]	373 nM	187 nM	12.5 µM (≈ 8.9 µg/mL)
Nc1nc2sc(CNC3CCN(C(=O)C[C@@](O)(Cn4cncn4)c4ccc(F)cc4F)CC3)cc2n(-c2ccc3c(c2)N(c2ccccc2)CCO3)c1=O [Compound I-129, (S)-3-amino-6-(((1-(3-(2,4-difluorophenyl)-3-hydroxy-4-(1H-1,2,4-triazol-1-yl)butanoyl)piperidin-4-yl)amino)methyl)-1-(4-phenyl-3,4-dihydro-2H-benzo[b][1,4]oxazin-6-yl)thieno[2,3-b]pyrazin-2(1H)-one]	698 nM	546 nM	7 µM (≈ 5.28 µg/mL)
Nc1nc2sc(C(=O)N[C@H]3CCN(CC(O)(Cn4cncn4)c4ccc(F)cc4F)C3)cc2n(-c2ccc3c(c2)N(c2ccccc2)CCO3)c1=O (stereo partly drawn) [Compound I-14, 3-amino-N-((3S)-1-(2-(2,4-difluorophenyl)-2-hydroxy-3-(1H-1,2,4-triazol-1-yl)propyl)pyrrolidin-3-yl)-2-oxo-1-(4-phenyl-3,4-dihydro-2H-benzo[b][1,4]oxazin-6-yl)-1,2-dihydrothieno[2,3-b]pyrazine-6-carboxamide]	146 nM	23.4 nM	25 µM (≈ 18.1 µg/mL)
Nc1nc2sc(CN[C@H]3[C@@H]4CN(C[C@](O)(Cn5cncn5)c5ccc(F)cc5F)C[C@@H]43)cc2n(-c2ccc3c(c2)N(c2ccccc2)CCO3)c1=O [Compound I-125, 3-amino-6-((((1R,5S,6R)-3-((S)-2-(2,4-difluorophenyl)-2-hydroxy-3-(1H-1,2,4-triazol-1-yl)propyl)-3-azabicyclo[3.1.0]hexan-6-yl)amino)methyl)-1-(4-phenyl-3,4-dihydro-2H-benzo[b][1,4]oxazin-6-yl)thieno[2,3-b]pyrazin-2(1H)-one]	886 nM	575 nM	5.75 µM (≈ 4.16 µg/mL)
CC1(NCc2cc3c(nc(N)c(=O)n3-c3ccc4c(c3)N(c3ccccc3)CCO4)s2)CCN(CC(O)(Cn2cncn2)c2ccc(F)cc2F)CC1 (stereo not drawn) [Compound I-117, 3-amino-6-(((1-(2-(2,4-difluorophenyl)-2-hydroxy-3-(1H-1,2,4-triazol-1-yl)propyl)-4-methylpiperidin-4-yl)amino)methyl)-1-(4-phenyl-3,4-dihydro-2H-benzo[b][1,4]oxazin-6-yl)thieno[2,3-b]pyrazin-2(1H)-one]	298 nM	461 nM	3 µM (≈ 2.22 µg/mL)
Nc1nc2sc(CN[C@H]3[C@@H]4CN(CC(O)(Cn5cncn5)c5ccc(F)cc5F)C[C@@H]43)cc2n(-c2ccc3c(c2)N(c2ccccc2)CCO3)c1=O (stereo partly drawn) [Compound I-81, 3-amino-6-((((1R,5S,6s)-3-(2-(2,4-difluorophenyl)-2-hydroxy-3-(1H-1,2,4-triazol-1-yl)propyl)-3-azabicyclo[3.1.0]hexan-6-yl)amino)methyl)-1-(4-phenyl-3,4-dihydro-2H-benzo[b][1,4]oxazin-6-yl)thieno[2,3-b]pyrazin-2(1H)-one]	1040 nM	825 nM	2.5 µM (≈ 1.81 µg/mL)
Nc1nc2sc(CN[C@H]3CCN(CC(O)(Cn4cncn4)c4ccc(F)cc4F)C3)cc2n(-c2ccc3c(c2)N(c2ccccc2)CCO3)c1=O (stereo partly drawn) [Compound I-71, 3-amino-6-((((3S)-1-(2-(2,4-difluorophenyl)-2-hydroxy-3-(1H-1,2,4-triazol-1-yl)propyl)pyrrolidin-3-yl)amino)methyl)-1-(4-phenyl-3,4-dihydro-2H-benzo[b][1,4]oxazin-6-yl)thieno[2,3-b]pyrazin-2(1H)-one]	1260 nM	865 nM	6.25 µM (≈ 4.45 µg/mL)
Nc1nc2sc(CNC3CCN(CC(O)(Cn4cncn4)c4ccc(F)cc4F)CC3(F)F)cc2n(-c2ccc3c(c2)N(c2ccccc2)CCO3)c1=O (stereo not drawn) [Compound I-137, 3-amino-6-(((1-(2-(2,4-difluorophenyl)-2-hydroxy-3-(1H-1,2,4-triazol-1-yl)propyl)-3,3-difluoropiperidin-4-yl)amino)methyl)-1-(4-phenyl-3,4-dihydro-2H-benzo[b][1,4]oxazin-6-yl)thieno[2,3-b]pyrazin-2(1H)-one]	127 nM	54.1 nM	0.78 µM (≈ 0.594 µg/mL)
Nc1nc2sc(-c3cn(C4CCN(CC(O)(Cn5cncn5)c5ccc(F)cc5F)CC4)nn3)cc2n(-c2ccc3c(c2)N(c2ccccc2)CCO3)c1=O (stereo not drawn) [Compound I-51, 3-amino-6-(1-(1-(2-(2,4-difluorophenyl)-2-hydroxy-3-(1H-1,2,4-triazol-1-yl)propyl)piperidin-4-yl)-1H-1,2,3-triazol-4-yl)-1-(4-phenyl-3,4-dihydro-2H-benzo[b][1,4]oxazin-6-yl)thieno[2,3-b]pyrazin-2(1H)-one]	14.6 nM	3 nM	1 µM (≈ 0.764 µg/mL)
